This note sets out measurements from ChEMBL document CHEMBL3045847, “Efficacy evaluation of a neem (Azadirachta indica A. Juss) formulation against root-knot nematodes Meloidogyne incognita” (Crop Prot, 2009).

Active and inactive are the calls of the source. The rule behind the calls is not given here.

Data set [1] has as its system Meloidogyne incognita. Briefly: Insecticidal activity against second stage juveniles of Meloidogyne incognita (root-knot nematode) assessed as increase in immotile at 12.8 to 51.2 ug a.i/ml in methanol after 24 to 96 hr. Format: functional, organism-based.
For data set [2], the system named is Meloidogyne incognita. Kind of data set: Insecticidal activity against second stage juveniles of Meloidogyne incognita (root-knot nematode) assessed as motility at 0.2 to 3.2 ug a.i/ml in methanol after 24 to 96 hr. The data set is classed as functional, organism-based.
Data set [3] in a line: Chemical stability of the compound after 4 days by HPLC analysis. The data set is classed as physicochemical. As to conditions: 96 h.
For data set [4], the system named is Meloidogyne incognita. Briefly: Insecticidal activity against second stage juveniles of Meloidogyne incognita (root-knot nematode) assessed as increase in immotile at 51.2 ug a.i/ml in methanol after 48 to 96 hr. The data set is classed as functional.
The subject of data set [5] is Meloidogyne incognita. Briefly: Insecticidal activity against second stage juveniles of Meloidogyne incognita (root-knot nematode) assessed as decrease of female nematodes in tomato roots at 0.03 to 30.72 ug/g after 30 days by pot bioassay. Format: functional, organism-based.
Data set [6] relates to Meloidogyne incognita. Briefly: Insecticidal activity against second stage juveniles of Meloidogyne incognita (root-knot nematode) assessed as motility at 0.2 to 3.2 ug a.i/ml in water after 24 to 96 hr. The data set is classed as functional, organism-based.
In data set [7] the test system is Meloidogyne incognita. Kind of data set: Insecticidal activity against second stage juveniles of Meloidogyne incognita (root-knot nematode) assessed as motility at 0.2 ug a.i/ml in water after 24 to 96 hr. Format: functional, organism-based.
The nature of data set [8]: Chemical stability of the compound after 72 hr by HPLC analysis. The data set is classed as physicochemical.
In data set [9] the test system is Solanum lycopersicum. Kind of data set: Toxicity in Solanum lycopersicum (tomato) assessed as effect on shoot and root fresh weight at 0.03 to 30.72 ug/g after 24 hr. The data set is classed as organism-based. The conditions noted are these: in vivo.
Data set [10] relates to Solanum lycopersicum. Kind of data set: Phytotoxicity in Solanum lycopersicum (tomato) assessed as effect on shoot and root fresh weight at 0.03 to 30.72 ug/g after 24 hr. The data set is classed as organism-based. The conditions noted are these: in vivo.
The test system of data set [11] is Meloidogyne incognita. Briefly: Insecticidal activity against second stage juveniles of Meloidogyne incognita (root-knot nematode) assessed as increase in immotile at 12.8 to 51.2 ug a.i/ml in water after 24 to 96 hr. Format: functional.
Data set [12] deals with Solanum lycopersicum. Briefly: Phytotoxicity in Solanum lycopersicum (tomato) assessed as effect on shoot and root fresh weight at 2 ug/g after 24 hr. The data set is classed as organism-based. The conditions noted are these: in vivo.
In data set [13] the test system is Meloidogyne incognita. Briefly: Insecticidal activity against second stage juveniles of Meloidogyne incognita (root-knot nematode) assessed as decrease of female nematodes in tomato roots at 2 ug/g after 30 days by pot bioassay. Format: functional, organism-based.
Data set [14] has as its system Solanum lycopersicum. Kind of data set: Toxicity in Solanum lycopersicum (tomato) assessed as effect on shoot and root fresh weight at 2 ug/g after 24 hr. Format: organism-based. As to conditions: in vivo.

Consider `C/C=C(\C)C(=O)O[C@H]1C[C@@H](OC(C)=O)[C@@]2(C(=O)OC)CO[C@H]3[C@@H](O)[C@@](C)([C@]45O[C@@]4(C)[C@@H]4C[C@H]5O[C@@H]5OC=C[C@@]54O)[C@H]4[C@]1(CO[C@]4(O)C(=O)OC)[C@@H]32` (stereo in doubt; form 1), for which the outcome in [1] was Active. For the same molecule, the result in data set [2] was inactive.

`C/C=C(\C)C(=O)O[C@H]1C[C@@H](OC(C)=O)[C@@]2(C(=O)OC)CO[C@H]3[C@@H](O)[C@@](C)([C@]45O[C@@]4(C)[C@@H]4C[C@H]5O[C@@H]5OC=C[C@@]54O)[C@H]4[C@]1(CO[C@]4(O)C(=O)OC)[C@@H]32` (stereo in doubt; form 1) [AZADIRACHTIN A]: the Activity was 84% in data set [3] and 11% in data set [4].

In the case of `C/C=C(\C)C(=O)O[C@H]1C[C@@H](OC(C)=O)[C@@]2(C(=O)OC)CO[C@H]3[C@@H](O)[C@@](C)([C@]45O[C@@]4(C)[C@@H]4C[C@H]5O[C@@H]5OC=C[C@@]54O)[C@H]4[C@]1(CO[C@]4(O)C(=O)OC)[C@@H]32` (stereo in doubt; form 2), the result in data set [5], in data set [6] and in data set [7] was inactive.

On to `C/C=C(\C)C(=O)O[C@H]1C[C@@H](OC(C)=O)[C@@]2(C(=O)OC)CO[C@H]3[C@@H](O)[C@@](C)([C@]45O[C@@]4(C)[C@@H]4C[C@H]5O[C@@H]5OC=C[C@@]54O)[C@H]4[C@]1(CO[C@]4(O)C(=O)OC)[C@@H]32` (stereo in doubt; form 2) [AZADIRACHTIN A], for which the Stability result in [8] was “Stable”. Moreover, the Activity result is on record as “Non-toxic” in [9], 88% in [3], “Non-toxic” in data set [10] and 21% in data set [11].

For `CCOP(=O)(SC(C)CC)N1CCSC1=O` (stereo not given) [FOSTHIAZATE], the Activity entry in data set [12] and in data set [14] was “Non-toxic” throughout. The outcome in data set [13] was Active.
